Assay results taken from patent US10251897B2, “GLUT4 endocytosis inhibitor” (NISHIZAKI BIOINFORMATION RESEARCH INSTITUTE, priority 2014, dated 2019).

Key:
GLUT4 [1] = assay: GLUT4 internal transfer (uptake) assay after insulin pre-treatment; assay type: cell-based; settings: insulin 100 nM 30 min then washed
Procedure: FIG. 2 is a graph showing that the GLUT4 cellular membrane distribution increasing action of DOPE derives from the suppression of GLUT4 endocytosis. 3T3L1-GLUT4myc adipocytes were treated with insulin (100 nM) for 30 min (−30-0 min), then washed to remove insulin (0 min), and DOPE (10 mM) was added to an extracellular solution. After incubation for 120 min, the cells were lysed, and separated into the cytoplasm (C) fraction and cellular membrane (M) fraction, after which Western blotting was performed using an anti-c-myc antibody. […] P value, ANOVA (Bonferroni adjustment). NS; not significant.
(§1) 3T3L1-GLUT4myc fibroblast strain expressing GLUT4myc was used. The cells are constructed by inserting human c-MYC epitope (14 amino acids) into the first ectodomain. […]
The protein concentration of each fraction was measured using BCA protein assay kit (Thermo Fisher Scientific, Waltham, Mass., USA). […] The immunoreactivity was detected using ECL kit (Invitrogen), and visualized using a chemical luminescence detection system (chemiluminescence detection system; GE Healthcare, Piscataway, N.J., USA). The signal density was measured using an image analysis software (Image Gauge software; GE Healthcare). […]

GLUT4 [2] = assay: GLUT4 mobilization monitoring (cellular membrane distribution of GLUT4, Western blotting with anti-c-myc antibody); assay type: cell-based
Procedure: FIG. 1 is a graph showing that DOPE has an action to increase cellular membrane distribution of GLUT4 in differentiated 3T3L1-GLUT4myc adipocytes. The cells were not treated with (Control), or treated with 1 μM of various phospholipid derivatives and, after 20 min, lysed, and separated into the cytoplasm (C) fraction and cellular membrane (M) fraction, after which Western blotting was performed using an anti-c-myc antibody. […] P value, ANOVA (Bonferroni adjustment). NS; not significant. DOPE; 1,2-dioleoyl-sn-glycero-3-phosphoethanolamine, DAPE; 1,2-diarachidonoyl-sn-glycero-3-phosphoethanolamine, DPPE; 1,2-dipalmitoleoyl-sn-glycero-3-phosphoethanolamine, DLPE; 1,2-dilinoleoyl-sn-glycero-3-phosphoethanolamine.
as §1
The protein concentration of each fraction was measured using BCA protein assay kit (Thermo Fisher Scientific, Waltham, Mass., USA). […] The immunoreactivity was detected using ECL kit (Invitrogen), and visualized using a chemical luminescence detection system (chemiluminescence detection system; GE Healthcare, Piscataway, N.J., USA). The signal density was measured using an image analysis software (Image Gauge software; GE Healthcare).

PKC isozymes = assay: Cell free PKC assay, PKC isozymes; assay type: biochemical; settings: DOPE 100 μM, absence of TPA
Procedure: (§2) PKC activity was monitored in a cell-free system. (A) Given PKC isozyme was evaluated in the absence or presence of DOPE (100 μM). […] P value, compared to each PKC isozyme activation in the absence of DOPE, Dunnett's test. (B) The activity of PKCα was evaluated in the absence (control) or presence of DOPE (100 μM), in the absence or presence of TPA (1 μM). […] P value, Dunnett's test. TPA; 12-O-tetradecanoylphorbol-[…].
(§3) PKC activity in a cell-free system was quantified by the methods described in previous reports (Kanno T et al. J Lipid Res 2006; 47:1146-1156). In short, synthesized PKC substrate peptide (10 μM) was reacted with various PKC isozymes in a medium containing 20 mM Tris-HCl (pH 7.5), 5 mM magnesium acetate, 10 μM ATP, in the presence or absence of DOPE (100 μm), in the presence or absence of 1 μM TPA (12-O-tetradecanoylphorbol-13-acetate) at 30° C. for 5 min. […] They were applied on reversed-phase HPLC (LC-10ATvp, Shimadzu Co., Kyoto, Japan), and the peak of substrate peptide and the peak of a new resultant product were measured by the absorbance at 214 nm. The areas of unphosphorylated PKC substrate peptide and phosphorylated PKC substrate peptide were measured (total area corresponds to the concentration of PKC substrate peptide used in this Example), and the amount of the phosphorylated substrate peptide was calculated. […]

PKCα = PKCα (Homo sapiens, UniProt P17252); assay: Cell free PKC assay, PKCα activated by TPA; assay type: biochemical; settings: DOPE 100 μM, TPA 1 μM
Procedure: as §2, §3

Glucose tolerance test = assay type: in vivo, C57BL/KsJ-lepr^db/lepr^db mouse; settings: type 2 diabetes model mouse, DOPE 0.1, 1, 10 mg/kg oral 30 min before glucose 2 g/kg; 30, 60, 90 min
Procedure: FIG. 6 is a graph showing that DOPE decreases the serum glucose level in C57BL/KsJ-lepr^db/lepr^db mouse. The mouse was placed in glucose starvation for 12 hr, glucose (2 g/kg) was orally administered, the blood was recovered at a given time and serum glucose assay was performed. DOPE was orally administered at a given concentration (0-10 mg/kg) 30 min before administration of glucose. […] P value, Fisher's PLSD (Protected Least Significant Difference test).
C57BL/KsJ-lepr^db/lepr^db mouse (female, 8-week-old) (CLEA Japan; Tokyo, Japan) was used. Glucose tolerance test was performed using the mouse starved for 12 hr. Glucose (2 g/ml/kg body weight) was administered by gavage, and the time point thereof was taken as 0 h. DOPE (0, 0.1, 1, 10 mg/kg) was orally administered 30 min before administration of glucose. Brine was used for DOPE (0 mg/kg). The blood (10 μl) was collected from the tail vein at the time points of 30, 60, and 90 min, and each plasma sample which was labeled with 4-aminobenzyl ethyl ester (ABEE) and prepared from the obtained blood was loaded on high performance liquid chromatography (HPLC) system (LC-10ATvp; Shimadzu Co., Kyoto, Japan). The glucose concentration was calculated from a peak area/concentration analytical curve prepared using the standard glucose solution.

PKCα activity activated by TPA (PKCα)	Molecule	decrease of GLUT4 on the cellular membrane by endocytosis after insulin stimulation (GLUT4 [1]; siRNA-transfected 3T3L1-GLUT4myc adipocytes, 120 min)	GLUT4 distribution on the cellular membrane (GLUT4 [2]; 3T3L1-GLUT4myc adipocytes 48 hr after siRNA transfection, vs NC siRNA)	PKC activation (PKC isozyme activity, pmol/min) (PKC isozymes)	endocytosis of GLUT4 transported onto the cellular membrane by insulin stimulation (GLUT4 [1]; 3T3L1-GLUT4myc adipocytes)	distribution of GLUT4 in cellular membrane (c-myc signal in cellular membrane fraction / total cells) (GLUT4 [2]; differentiated 3T3L1-GLUT4myc adipocytes, 1 μM phospholipid derivative, 20 min, vs Control)	blood glucose level (Glucose tolerance test)
	PKCα siRNA: siRNA for PKCα, SEQ ID NO: 1 and 2, purchased from Ambion (chain 1 GAACGUGCAUGAGGUGAAATT; chain 2 UUUCACCUCAUGCACGUUCTT; chemistry not given here) [reference compound]	the decrease was suppressed	significantly increased				
suppress PKCα activated by TPA	CCCCCCCC/C=C\CCCCCCCC(=O)OC[C@H](COP(=O)(O)OCCN)OC(=O)CCCCCCC/C=C\CCCCCCCC [DOPE, 1,2-Dioleoyl-sn-glycerol-3-phosphoethanolamine]			not involved in PKC activation	suppressed	significantly increased	decrease blood glucose level of type 2 diabetes model mouse in a dose dependent manner
